The results in this text go back to ChEMBL document CHEMBL5325393, “A mini-review on synthesis and antiviral activity of natural product oxetanocin A derivatives” (Bioorg Med Chem, 2022).

Data set [1] relates to Hepatitis B virus. Description: Antiviral activity against HBV infected in human HB611 cells assessed as inhibition of viral DNA replication incubated for 15 days by SDS-PAGE based autoradiographic analysis. It is filed as functional, organism-based. The conditions noted are these: HB611, 360 h.
Data set [2] is described as follows: Cytotoxicity against human CCD-18Co cells assessed as inhibition of cell growth by colorimetric method. Format: toxicity, cell-based.
Data set [3] can be described thus: Cytotoxicity against human Detroit 551 cells assessed as inhibition of cell growth by colorimetric method. It is filed as toxicity, cell-based.
The subject of data set [4] is Human betaherpesvirus 5. Briefly: Antiviral activity against HCMV AD169 infected in HELF cells by plaque reduction assay. Format: functional, organism-based. The conditions noted are these: Human betaherpesvirus 5, AD169, HELF.
Data set [5] concerns Human immunodeficiency virus 1. Briefly: Antiviral activity against HIV-1 HTLV-IIIB infected in human MT4 cells assessed as inhibition of viral replication incubated for 4 days by immunofluorescence assay. Format: functional, organism-based. The conditions noted are these: Human immunodeficiency virus 1, HTLV-IIIB, MT4, 96 h.
Data set [6] can be described thus: Cytotoxicity against human HB611 cells assessed as inhibition of cell growth incubated for 48 hrs by colorimetric method. It is filed as functional.
Data set [7] has as its system Human immunodeficiency virus 1. Briefly: Antiviral activity against HIV-1 HTLV-IIIB infected in human MT4 cells assessed as reduction in virus induced cytopathogenicity by immunofluorescence assay. Format: functional, organism-based. The conditions noted are these: Human immunodeficiency virus 1, HTLV-IIIB.
For data set [8], the system named is Human immunodeficiency virus 1. Description: Antiviral activity against HIV-1 assessed as inhibition of viral replication. Format: functional, organism-based.
Data set [9] concerns Human immunodeficiency virus 2. Description: Antiviral activity against HIV-2 D194 infected in PBMC assessed as inhibition of viral growth. The conditions noted are these: Human immunodeficiency virus 2, D194, PBMC. It is filed as functional, organism-based.
Data set [10] has as its system Human immunodeficiency virus 1. Description: Antiviral activity against HIV-1 III B infected in PBMC assessed as inhibition of viral growth. It is filed as functional, organism-based. The conditions noted are these: Human immunodeficiency virus 1, III B.
The test system of data set [11] is Human alphaherpesvirus 2. Briefly: Antiviral activity against HSV-2 assessed as inhibition of cytopathic effect at 5.8 ug per well relative to control. Format: functional. In general terms: Protection from cytopathic effect is a common read-out in antiviral testing.
For data set [12], the system named is Human immunodeficiency virus 1. Description: Antiviral activity against HIV-1 HTLV-IIIB infected in human MT4 cells assessed as inhibition of viral replication. It is filed as functional, organism-based. The conditions noted are these: Human immunodeficiency virus 1, HTLV-IIIB.
Data set [13] in a line: Cytotoxicity against African green monkey Vero cells assessed as inhibition of cell growth at 132.6 microg/ml relative to control. Format: toxicity, cell-based. The conditions noted are these: chlorocebus sabaeus, at 132.6 µg/mL.
In data set [14] the test system is Human immunodeficiency virus. Briefly: Antiviral activity against HIV RF assessed as inhibition of viral growth. It is filed as functional, organism-based. The conditions noted are these: Human immunodeficiency virus 1, RF.
In data set [15] the test system is Human immunodeficiency virus. Description: Antiviral activity against HIV infected in human MT4 cells by plaque reduction assay. It is filed as functional, organism-based. The conditions noted are these: Human immunodeficiency virus 1, MT4.
Data set [16] concerns Human betaherpesvirus 5. Briefly: Antiviral activity against HCMV assessed as inhibition of viral growth. It is filed as functional, organism-based.
The subject of data set [17] is HUVEC. Briefly: Angiogenic activity against HUVEC cells assessed as relative area of tube formation at 100 uM incubated for 10 days by tube formation assay. It is filed as functional, Homo sapiens. The conditions noted are these: time 10 day.
In data set [18] the test system is HUVEC. Briefly: Angiogenic activity against HUVEC cells assessed as relative area of tube formation at 100 uM incubated for 96 hrs by Alexa fluor 488 staining based analysis. It is filed as functional, Homo sapiens.
Data set [19] deals with Hepatitis B virus. Briefly: Antiviral activity against HBV infected in human HepG2.2.15 cells assessed as reduction in virus induced cytopathogenicity by Southern blot analysis. Format: functional, organism-based.
The test system of data set [20] is Human alphaherpesvirus 2. Briefly: Antiviral activity against HSV-2 186 infected in African green monkey Vero cells assessed as reduction in virus induced cytopathogenicity by plaque reduction assay. The conditions noted are these: Human alphaherpesvirus 2, 186, Vero. It is filed as functional, organism-based.
In data set [21] the test system is Human alphaherpesvirus 3. Description: Antiviral activity against thymidine kinase positive VZV V8602/5-1-1 infected in HFF cells assessed as reduction in viral replication incubated for 10 days by crystal violet staining based microplate reader analysis. It is filed as functional, organism-based. The conditions noted are these: Human alphaherpesvirus 3, V8602/5-1-1, HFF, 240 h.

The test system of data set [22] is Human alphaherpesvirus 1. Briefly: Antiviral activity against lethal intracerebral HSV-1 123 infected in po dosed Swiss mouse model assessed as increase in animal survival administered as single double strength loading dose at 7 hrs post-inoculation and single strength dose at 23, 31, 47, 55, 71, 79 hrs post-inoculation and monitored for 21 days. The conditions noted are these: time 21 day. It is filed as functional.

Data set [23] deals with Human alphaherpesvirus 1. Description: Antiviral activity against thymidine kinase positive HSV-1 123 infected in HFF cells assessed as reduction in viral replication incubated for 3 days by crystal violet staining based microplate reader analysis. Format: functional, organism-based. The conditions noted are these: Human alphaherpesvirus 1, 123, HFF, 72 h.
Data set [24] concerns Human alphaherpesvirus 1. Briefly: Antiviral activity against thymidine kinase positive HSV-1 SC-16 infected in HFF cells assessed as reduction in viral replication incubated for 3 days by crystal violet staining based microplate reader analysis. Format: functional, organism-based. The conditions noted are these: Human alphaherpesvirus 1, SC-16, HFF, 72 h.
Data set [25] has as its system Human alphaherpesvirus 3. Briefly: Antiviral activity against thymidine kinase positive VZV OKA infected in HFF cells assessed as reduction in viral replication incubated for 10 days by crystal violet staining based microplate reader analysis. Format: functional, organism-based. The conditions noted are these: Human alphaherpesvirus 3, OKA, 240 h.
Data set [26] in a line: Antiproliferative against human HFF cells assessed as inhibition of cell growth by neutral red uptake analysis. Format: toxicity, cell-based.
Data set [27] concerns Human alphaherpesvirus 3. Description: Antiviral activity against thymidine kinase positive VZV DKG infected in HFF cells assessed as reduction in viral replication incubated for 10 days by crystal violet staining based microplate reader analysis. The conditions noted are these: Human alphaherpesvirus 3, DKG, 240 h. It is filed as functional, organism-based.
Data set [28] concerns Human alphaherpesvirus 1. Briefly: Antiviral activity against lethal systemic HSV-1 123 infected in po dosed Swiss mouse model assessed as increase in animal survival administered as single double strength loading dose at 7 hrs post-inoculation and single strength dose at 23, 31, 47, 55, 71, 79 hrs post-inoculation and monitored for 21 days. It is filed as functional. The conditions noted are these: time 21 day.

Data set [29] deals with Human alphaherpesvirus 3. Briefly: Antiviral activity against thymidine kinase positive VZV V8907 infected in HFF cells assessed as reduction in viral replication incubated for 10 days by crystal violet staining based microplate reader analysis. Format: functional, organism-based. The conditions noted are these: Human alphaherpesvirus 3, V8907, HFF, 240 h.
Data set [30] relates to Human alphaherpesvirus 1. Description: Antiviral activity against thymidine kinase positive HSV-1 E-377 infected in HFF cells assessed as reduction in viral replication incubated for 3 days by crystal violet staining based microplate reader analysis. The conditions noted are these: Human alphaherpesvirus 1, E-377, HFF, 72 h. It is filed as functional, organism-based.
Data set [31] has as its system Human alphaherpesvirus 3. Briefly: Antiviral activity against thymidine kinase positive VZV Ellen infected in HFF cells assessed as reduction in viral replication incubated for 10 days by crystal violet staining based microplate reader analysis. It is filed as functional, organism-based. The conditions noted are these: Human alphaherpesvirus 3, Ellen, 240 h.
In data set [32] the test system is Human immunodeficiency virus. Description: Antiviral activity against HIV assessed as inhibition of viral growth. Format: functional, organism-based. The conditions noted are these: Human immunodeficiency virus 1.
Data set [33] concerns Human alphaherpesvirus 2. Description: Antiviral activity against HSV-2 assessed as inhibition of viral growth. Format: functional, organism-based.
For data set [34], the system named is Human alphaherpesvirus 1. Description: Antiviral activity against HSV-1 assessed as inhibition of viral growth. Format: functional, organism-based.
For a further data set, the system named is Cytomegalovirus. Description: Antiviral activity against CMV AD-169 infected in HEL cells assessed as reduction in virus plaque formation. Format: functional, organism-based. The conditions noted are these: Human betaherpesvirus 5, AD-169, HEL.
In another data set the test system is Murid betaherpesvirus 1. Description: Antiviral activity against MCMV Smith infected in MEF cells assessed as reduction in plaque formation by plaque reduction assay. The conditions noted are these: Murid betaherpesvirus 1, Smith, read-out: ED50 (the source's name). It is filed as functional. A general note: Plaques are areas of infected cells; plaque reduction assays count them against a control.

The test system of data set [35] is Hepatitis B virus. Description: Antiviral activity against HBV assessed as inhibition of viral growth. Format: functional, organism-based.

≈ marks a conversion by molar mass, not a printed value.

One may read the IC50 as the concentration needed to halve the response being measured. As a reminder, the CC50 is the concentration giving 50% cytotoxicity. With `Nc1nc2c(ncn2[C@@H]2O[C@H](CO)[C@H]2CO)c(=O)[nH]1`, the IC50 is 1.5 µM in the data set on Hepatitis B virus [1], above 300 µM in [2], above 300 µM in data set [3] and 1 µM with Human betaherpesvirus 5 [4]. Further, in data set [5], the EC50 is 2.2 µM. Moreover, in data set [6], the CC50 was above 1000 µM.

In the case of `O=c1[nH]cnc2c1ncn2[C@H]1CC[C@@H](CO)O1` [DIDANOSINE], the EC50 in data set [7] and in data set [8] was 0.46 µg/mL (≈ 1.95 µM) each time.

`O=c1[nH]cnc2c1ncn2[C@H]1C[C@@](F)(CO)C1`: the IC50 in data set [9] was found to be 46 µM; in data set [10] it was 95 µM.

Regarding `Nc1ncnc2c1ncn2[C@H]1C[C@@](F)(CO)C1`, the IC50 worked out at 1.5 µM in data set [9] and 3.9 µM in data set [10].

As usually defined, the inhibition is the share of the control response that was lost under treatment. For the compound `Nc1ncnc2c1ncn2[C@@H]1O[C@H](CO)[C@H]1CO`, in the data set with Human alphaherpesvirus 2 [11], the inhibition at 5.8 µg/disc was 50%. In addition, the IC50 in data set [12] came to 1.7 µM; in the data set with Human betaherpesvirus 5 [4] it was 13 µM; in data set [14], 0.5 µg/mL (≈ 1.99 µM); in [15], 4.3 µg/mL (≈ 17.1 µM); in the data set with Human betaherpesvirus 5 [16] it was 13 µg/mL. In [13], the inhibition at 132.6 microg/ml is 50%. Further, the EC50 in [8] turned out to be 1.4 µg/mL (≈ 5.57 µM); in data set [5], 1.4 µM.

In the case of `CC(C)Oc1nc(N)c2ncn([C@@H]3C[C@H](CO)[C@H]3CO)c2n1`, in the data set with HUVEC [17], the Ratio is reported as 1.9.

With `Nc1nc(Cl)nc2c1ncn2[C@@H]1O[C@H](CO)[C@H]1CO`, the IC50 in data set [12] stood at 0.44 µM.

For `Nc1nc(I)nc2c1ncn2[C@@H]1C[C@H](CO)[C@H]1CO`, in the data set with HUVEC [18], the Ratio came to 2.01.

For `Nc1ccn([C@@H]2CS[C@H](CO)O2)c(=O)n1` [LAMIVUDINE], the EC50 in the data set on Hepatitis B virus [19] stood at 0.009 µg/mL (≈ 0.0393 µM); with Human alphaherpesvirus 2 [20], 0.39 µg/mL (≈ 1.7 µM).

On to `Nc1nc(Cl)nc2c1ncn2[C@@H]1C[C@@H](CO)[C@H]1CO`, for which the Ratio in the data set on HUVEC [17] came out at 3.43.

`Nc1nc(Cl)nc2c1ncn2[C@H]1C[C@H](CO)C1`: the Ratio in the data set on HUVEC [17] turned out to be 3.32.

With `Cc1cn([C@@H]2O[C@H](CO)[C@H]2CO)c(=O)[nH]c1=O`, the EC50 in the data set with Human alphaherpesvirus 3 [21] was 0.01 µM; in the data set on Human alphaherpesvirus 1 [23], 0.012 µM; in the data set with Human alphaherpesvirus 1 [24], 0.012 µM; in the data set on Human alphaherpesvirus 3 [25], 0.01 µM; in the data set on Human alphaherpesvirus 3 [27], 0.01 µM; in the data set on Human alphaherpesvirus 3 [29] it was 0.01 µM. Moreover, the EC50 was determined as 0.012 µM with Human alphaherpesvirus 1 [30] and 0.01 µM in the data set on Human alphaherpesvirus 3 [31]. Besides, the results for the ED50 in the data set on Human alphaherpesvirus 1 [22] and in the data set with Human alphaherpesvirus 1 [28] were 211 mg/kg.day and 142 mg/kg.day, respectively. Moreover, in [26], the IC50 was above 100 µM.

Turning to `Nc1ncnc2c1ncn2[C@H]1C[C@@H](CO)C1`, the EC50 in data set [32] worked out at 0.8 µM.

Take `Nc1nc2c(ncn2N2C[C@H](CO)[C@H]2CO)c(=O)[nH]1`: the EC50 in [8] was 0.46 µg/mL (≈ 1.73 µM); with Human alphaherpesvirus 2 [33], 6.32 µg/mL (≈ 23.7 µM); with Human alphaherpesvirus 1 [34] it was 5.36 µg/mL (≈ 20.1 µM).

Turning to `Nc1nc(Br)nc2c1ncn2[C@@H]1C[C@H](CO)[C@H]1CO`, in the data set on HUVEC [18], the Ratio came to 2.1.

Consider `C=C1C[C@@H](n2cnc3c(=O)[nH]c(N)nc32)[C@@H]1CO`, for which the EC50 in the data set with Cytomegalovirus came out at 70 µg/mL (≈ 283 µM).

As to `Nc1ncnc2c1ncn2[C@@H]1C[C@H](CO)[C@H]1CO`, the EC50 in the data set with Murid betaherpesvirus 1 was found to be 0.05 µg/mL (≈ 0.201 µM). In addition, the IC50 turned out to be 0.03 µM in [32]; 0.024 µM in the data set with Hepatitis B virus [35]; 1.6 µM in the data set on Human alphaherpesvirus 2 [33]; 12 µM in the data set with Human betaherpesvirus 5 [16]; 1.6 µM in the data set with Human alphaherpesvirus 1 [34].
